# Data as given in patent US20220151230A1, “SPECIFICALLY SUBSTITUTED 3-(2-HALOGEN-6-ALKYL-4-PROPINYLPHENYL)-3-PYRROLIN-2-ONES AND TO THE USE THEREOF AS HERBICIDES” (Bayer Aktiengesellschaft, priority 2019, published 2022).
# What was measured:
# [1] = tested on: ALOMY; assay: Pre-emergence herbicidal effect against ALOMY; format: in vivo, Alopecurus myosuroides; conditions: 320 g/ha, scored visually after 3 weeks vs untreated controls, 100% = plants have died
# Excerpt: (§1) Seeds of monocotyledonous and dicotyledonous weed plants and crop plants are laid out in sandy loam soil in wood-fiber pots and covered with soil. The compounds of the invention, formulated in the form of wettable powders (WP) or as emulsion concentrates (EC), are then applied to the surface of the covering soil as aqueous suspension or emulsion at a water application rate equating to 600 to 800 L/ha with addition of 0.2% wetting agent.
# (§2) After the treatment, the pots are placed in a greenhouse and kept under good growth conditions for the trial plants. The damage to the test plants is scored visually after a test period of 3 weeks by comparison with untreated controls (herbicidal activity in percent (%): 100% activity=the plants have died, 0% activity=like control plants).
# [2] = tested on: ALOMY; assay: Post-emergence herbicidal effect against ALOMY; format: in vivo, Alopecurus myosuroides; conditions: one-leaf stage, 80 g/ha, assessed visually after about 3 weeks vs untreated controls, 100% = plants have died
# Description: (§3) Seeds of monocotyledonous and dicotyledonous weed and crop plants are laid out in sandy loam soil in wood-fiber pots, covered with soil and cultivated in a greenhouse under good growth conditions. 2 to 3 weeks after sowing, the test plants are treated at the one-leaf stage. The compounds of the invention, formulated in the form of wettable powders (WP) or as emulsion concentrates (EC), are then sprayed onto the green parts of the plants as aqueous suspension or emulsion at a water application rate equating to 600 to 800 l/ha with addition of 0.2% wetting agent. After the test plants have been left to stand in the greenhouse under optimal growth conditions for about 3 weeks, the action of the preparations is assessed visually in comparison to untreated controls (herbicidal action in percent (%): 100% activity=the plants have died, 0% activity=like control plants).
# [3] = tested on: ECHCG; assay: Post-emergence herbicidal effect against ECHCG; format: in vivo, Echinochloa crus-galli; conditions: one-leaf stage, 80 g/ha, assessed visually after about 3 weeks vs untreated controls, 100% = plants have died
# Description: as §3
# [4] = tested on: SETVI; assay: Post-emergence herbicidal effect against SETVI; format: in vivo, Setaria viridis; conditions: one-leaf stage, 80 g/ha, assessed visually after about 3 weeks vs untreated controls, 100% = plants have died
# Description: as §3
# [5] = tested on: AVEFA; assay: Post-emergence herbicidal effect against AVEFA; format: in vivo, Avena fatua; conditions: one-leaf stage, 80 g/ha, assessed visually after about 3 weeks vs untreated controls, 100% = plants have died
# Description: as §3
# [6] = tested on: LOLRI; assay: Post-emergence herbicidal effect against LOLRI; format: in vivo, Lolium rigidum; conditions: one-leaf stage, 80 g/ha, assessed visually after about 3 weeks vs untreated controls, 100% = plants have died
# Description: as §3
# [7] = tested on: SETVI; assay: Pre-emergence herbicidal effect against SETVI; format: in vivo, Setaria viridis; conditions: 320 g/ha, scored visually after 3 weeks vs untreated controls, 100% = plants have died
# Excerpt: as §1, §2
# [8] = tested on: LOLRI; assay: Pre-emergence herbicidal effect against LOLRI; format: in vivo, Lolium rigidum; conditions: 320 g/ha, scored visually after 3 weeks vs untreated controls, 100% = plants have died
# Excerpt: as §1, §2
# [9] = tested on: DIGSA; assay: Post-emergence herbicidal effect against DIGSA; format: in vivo, Digitaria sanguinalis; conditions: one-leaf stage, 80 g/ha, assessed visually after about 3 weeks vs untreated controls, 100% = plants have died
# Description: as §3
# [10] = tested on: AVEFA; assay: Pre-emergence herbicidal effect against AVEFA; format: in vivo, Avena fatua; conditions: 320 g/ha, scored visually after 3 weeks vs untreated controls, 100% = plants have died
# Excerpt: as §1, §2
# [11] = tested on: ECHCG; assay: Pre-emergence herbicidal effect against ECHCG; format: in vivo, Echinochloa crus-galli; conditions: 320 g/ha, scored visually after 3 weeks vs untreated controls, 100% = plants have died
# Excerpt: as §1, §2
# [12] = tested on: DIGSA; assay: Pre-emergence herbicidal effect against DIGSA; format: in vivo, Digitaria sanguinalis; conditions: 320 g/ha, scored visually after 3 weeks vs untreated controls, 100% = plants have died
# Excerpt: as §1, §2
Compound,Pre-emergence action [%] against ALOMY [1],Post-emergence action [%] against ALOMY [2],Post-emergence action [%] against ECHCG [3],Post-emergence action [%] against SETVI [4],Post-emergence action [%] against AVEFA [5],Post-emergence action [%] against LOLRI [6],Pre-emergence action [%] against SETVI [7],Pre-emergence action [%] against LOLRI [8],Post-emergence action [%] against DIGSA [9],Pre-emergence action [%] against AVEFA [10],Pre-emergence action [%] against ECHCG [11],Pre-emergence action [%] against DIGSA [12]
CC#Cc1cc(Br)c(C2=C(O)C3(CCCC(OCCOC)C3)NC2=O)c(CC)c1 (centres unmarked) [Example D8],80%,100%,90%,90%,80%,80%,100%,,,,,
"CC#Cc1cc(C)c(C2=C(OC(=O)C(C)C)C3(CCC(CC)CC3)NC2=O)c(Cl)c1 (centres unmarked) [Example P1, 3-[2-Chloro-6-methyl-4-(prop-1-yn-1-yl)phenyl]-8-ethyl-2-oxo-1-azaspiro[4.5]dec-3-en-4-yl 2-methylpropanoate]",,,,100%,,,,,,,,
CC#Cc1cc(Cl)c(C2=C(OC(=O)OCC)C3(CCC(OCC)CC3)NC2=O)c(CC)c1 (centres unmarked) [Example P22],100%,,90%,100%,,,100%,100%,90%,90%,100%,100%
CC#Cc1cc(Cl)c(C2=C(OC(=O)OCC)C3(CCC(OCCOC)CC3)NC2=O)c(CC)c1 (centres unmarked) [Example P23],100%,80%,,80%,,,100%,100%,,80%,100%,100%
CC#Cc1cc(Cl)c(C2=C(OC(=O)C(C)C)C3(CCC(OC)CC3)NC2=O)c(CC)c1 (centres unmarked) [Example P25],100%,90%,100%,100%,,,100%,90%,100%,100%,100%,100%
CC#Cc1cc(Cl)c(C2=C(OC(=O)OC)C3(CCC(OCC)CC3)NC2=O)c(CC)c1 (centres unmarked) [Example P26],100%,90%,100%,90%,,,100%,100%,80%,90%,90%,100%
CC#Cc1cc(Cl)c(C2=C(OC(=O)OC)C3(CCC(OCCOC)CC3)NC2=O)c(CC)c1 (centres unmarked) [Example P28],100%,,80%,80%,,,100%,,,80%,100%,100%
CC#Cc1cc(Cl)c(C2=C(OC(=O)OC(C)(C)C)C3(CCC(OCCOC)CC3)NC2=O)c(CC)c1 (centres unmarked) [Example P29],80%,,90%,90%,,,80%,,,80%,90%,90%
CC#Cc1cc(Cl)c(C2=C(OC(=O)OC(C)(C)C)C3(CCC(OC)CC3)NC2=O)c(CC)c1 (centres unmarked) [Example P30],100%,90%,,100%,80%,,100%,100%,,80%,90%,100%
CC#Cc1cc(Cl)c(C2=C(OC(=O)C(C)C)C3(CCC(OCC)CC3)NC2=O)c(CC)c1 (centres unmarked) [Example P31],100%,100%,,100%,,,100%,100%,,90%,100%,100%
CC#Cc1cc(Cl)c(C2=C(OC(=O)C(C)C)C3(CCC(OCCOC)CC3)NC2=O)c(CC)c1 (centres unmarked) [Example P32],100%,,,90%,,,100%,90%,,,100%,90%
CC#Cc1cc(Cl)c(C2=C(OC(=O)OCC)C3(CCC(OC)CC3)NC2=O)c(C2CC2)c1 (centres unmarked) [Example P33],100%,100%,100%,100%,100%,100%,100%,100%,,100%,100%,100%
CC#Cc1cc(Br)c(C2=C(OC(=O)OCC)C3(CCC(OC)CC3)NC2=O)c(CC)c1 (centres unmarked) [Example P34],,100%,90%,100%,,,100%,,,,,
CC#Cc1cc(Br)c(C2=C(OC(=O)OCC)C3(CCC(OC)CC3)NC2=O)c(C2CC2)c1 (centres unmarked) [Example P35],100%,100%,100%,100%,,100%,100%,100%,100%,100%,100%,100%
CC#Cc1cc(Br)c(C2=C(OC(=O)OCC)C3(CCCC(OCCOC)C3)NC2=O)c(CC)c1 (centres unmarked) [Example Q1],90%,80%,,90%,,,100%,90%,,,,
CC#Cc1cc(Br)c(C2=C(OC(=O)OCC)C3(CCCC(OCCOC)C3)NC2=O)c(C2CC2)c1 (centres unmarked) [Example Q2],100%,100%,100%,100%,,100%,100%,100%,100%,100%,100%,100%
CC#Cc1cc(C)c(C2=C(OC(=O)OCC)C3(CCCC(OCCC)C3)NC2=O)c(Br)c1 (centres unmarked) [Example Q3],100%,100%,100%,100%,,100%,100%,100%,100%,100%,100%,100%
CC#Cc1cc(C)c(C2=C(OC(=O)OC(C)(C)C)C3(CCCC(OCC(C)C)C3)NC2=O)c(Cl)c1 (centres unmarked) [Example Q7],80%,,,,,,100%,,,,,
